Results reported in paper PMC7756582, “Prodrugs of γ‐Alkyl‐Modified Nucleoside Triphosphates: Improved Inhibition of HIV Reverse Transcriptase” (Angewandte Chemie (International Ed. in English), 2020).

Columns and labels:
HIV-2(ROD) [1] = assay: Anti-HIV activity assay, HIV-2-infected wild-type CEM/0 cell cultures; assay type: cell-based; settings: Human immunodeficiency virus 2, CCRF-CEM, read-out: EC50 CEM/0 HIV-2
Protocol: (§1) γ‐(AB,alkyl)‐d4TTP prodrugs 6 and the γ‐alkyl‐d4TTPs 7 were evaluated for their ability to inhibit the replication of HIV in HIV‐1‐ or HIV‐2‐infected wild‐type CEM/0 as well as mutant thymidine‐kinase‐deficient CEM cell cultures (CEM/TK^−). For comparison, two TriPPPro derivatives 5 were also included in this assay.
(§2) Anti-HIV activity assay: Inhibition of HIV-1(IIIB)- and HIV-2(ROD)-induced cytopathicity in wild-type CEM/0 and thymidine kinase-deficient CEM/TK- cell cultures was measured in microtiter 96-well plates containing ~3·105 CEM cells/mL infected with 100 CCID50 of HIV per milliliter and containing appropriate dilutions of the test compounds. After 4−5 days of incubation at 37 °C in a CO2-controlled humidified atmosphere, CEM giant (syncytium) cell formation was examined microscopically. […]
(§3) was defined as the compound concentration required to inhibit HIV-induced giant cell formation by 50%. […]
(§4) The result was visualized by fluorescence imaging. […]
as §4

[2] = Enzyme-catalyzed hydrolysis in human CD4+ T-lymphocyte CEM cell extracts; assay type: in vitro ADME; settings: for half-life at 0.86 mM: CEM/0 cell extracts (CD4+ T-lymphocytes), human CD4+ T-lymphocyte CEM cell extracts, 37 °C, read-out: CEM/0 cell extracts t 1/2 (converted)
Protocol: The stability of prodrugs 6 and the γ‐alkyl‐NTPs 7 was further investigated in human CD4 ^+ T‐lymphocyte CEM cell extracts. […] Thus, an enzymatic cleavage reaction took place. Half‐lives as low as 0.4 h (6 az) to 5.2 h (6 dz) were determined. […] This is in accordance to our previous results for the DiPPro‐[ ^17 , ^18 ] or the TriPPPro‐compounds 5.[ ^22 , ^23 ] In all cases we observed the predominant formation of γ‐alkyl‐d4TTPs 7 and d4TDP 2 d in very low concentration (Figure 2 B) but no NTP formation was detected, in contrast to the studies using the previously described TriPPPro compounds 5.[ ^23 , ^24 ] However, the difference to the compounds bearing long lipophilic acyl groups was not very pronounced (2‐ to 3‐fold). In the case of γ‐(AB‐C4,alkyl‐C18)‐d4TTP 6 cz, γ‐C18‐d4TTP 7 z was detected as the main product. After 8 h incubation, the ratio of γ‐C18‐d4TTP 7 z and d4TDP 2 d was 5:1. This was in sharp contrast to the studies performed with TriPPPro compounds 5.[ ^23 , ^24 ] There, it was almost impossible to detect significant concentrations of d4TTP due to its fast dephosphorylation to form first d4TDP and finally d4TMP 2 m. […] The formation of thymine or d4TTP 2 t from γ‐C18‐d4TTP 7 z was not detected (Supporting Information, Figure SI2).
(§5) ProLab 300 from Schott Co.. Thermomixer: Eppendorf Thermomixer 5436 and CellMedia Thermoschüttler basic were used. […]
Enzyme-catalyzed hydrolysis of γ-(AB,alkyl)-d4TTPs 6, γ-alkyl-d4TTPs 7,15 and TriPPPros 5 in CEM cell extracts:
18 µL of the appropriate 50 mM DMSO-d6 stock solution was diluted to 6.0 mM hydrolysis solution by addition of 132.0 µL DMSO-d6.
7-10 different samples including 10 µL water and 10 µL hydrolysis solution were prepared in 2 mL Eppendorf® vials. The reaction was started by addition of 50 µL human CEM cell extract and the mixture was incubated at 37 °C for different time periods. The reactions were stopped by addition of 150 μL MeOH. The solution was kept on ice for 5 min followed by centrifugation for 5 min (13000 rpm).
The supernatants were filtered (Chromafil® RC-20/15 MS, 0.2 μm) and stored in liquid nitrogen. When testing, the samples were defrosted and injection volume with 80 μL was used for HPLC analysis. The calculation of t1/2 was performed analogously to that for the chemical hydrolysis studies.
(§6) Preparation of cell extracts: Human CD4+ T-lymphocyte CEM cells were grown in RPMI-1640-based cell culture medium to a final density of ~3·10^6 cells/ml. Then, cells were centrifuged for 10 min at 1,250 rpm at 4 °C, washed twice with cold PBS, and the pellet was re-suspended at 10^8 cells/ml and sonicated (Hielscher Ultrasound Techn., 100% amplitude, 3·times for 10 sec) to destroy cell integrity. The resulting cell suspension was then centrifuged at 10,000 rpm to remove cell debris, and the supernatant divided in aliquots before being frozen at -80 C and used.

HIV-2(ROD) [3] = assay: Anti-HIV activity assay, HIV-2-infected thymidine-kinase-deficient CEM/TK- cell cultures; assay type: cell-based; settings: for antiviral activity in CEM/TK− cell cultures (in words): HIV-2-infected CEM/TK− cells; for EC50: read-out: EC50 CEM/TK− HIV-2
Protocol: as §1, §2, §3, §4, §4

[4] = Cytotoxicity: inhibition of CD4+ T-cell (CEM) proliferation; assay type: cell-based; settings: human, CEM/0 cells (CD4+ T-cells), 50 % cytostatic concentration, mean±SD, n=2-3
HIV-1(IIIB) = assay: Anti-HIV activity assay, HIV-1-infected wild-type CEM/0 cell cultures; assay type: cell-based; settings: Human immunodeficiency virus 1, IIIB, CCRF-CEM; wild-type CEM/0 cells, HIV-1; mean±SD, n=2-3; read-out: EC50 CEM/0 HIV-1
Protocol: as §1, §2, §3, §4, §4

[5] = Chemical hydrolysis in aqueous phosphate buffer (PBS, pH 7.3); assay type: physicochemical; settings: phosphate buffered saline (PBS); aqueous 25 mM phosphate buffer, pH 7.3, 37 °C; removal of AB group; n.h. = no hydrolysis observed through cleavage of AB-mask; read-out: PBS pH 7.3 t 1/2 (converted)
Protocol: γ‐(AB,alkyl)‐NTP prodrugs 6 and γ‐alkyl‐NTPs 7 were incubated in aqueous phosphate buffer (PBS, 25 mM, pH 7.3), or were exposed to pig liver esterase (PLE) in phosphate buffer (PBS) and to human CD4^+ T‐lymphocyte cell extracts to study their stability and the product distribution. The hydrolysis mixtures were analyzed by means of analytical rp‐18‐HPLC. The calculated half‐lives of prodrugs 6 (Table 1, t 1/2) reflect the removal of the bioreversible AB group to yield γ‐alkyl‐NTPs 7. Possible hydrolysis pathways and products are summarized in Scheme 4.
As hydrolysis products, a predominant formation of γ‐alkyl‐d4TTPs 7 and a very small amount of d4TDP […] was detected (approximately 3 %). After consumption of the starting material, no further increase of d4TDP concentration was observed. This supports the hypothesis that only the double‐γ‐esterified d4TTP prodrugs 6 were prone to a bond breakage between the γ‐ and β‐phosphate. […] In contrast to previous studies with TriPPPro‐NTPs 5 containing a second cleavable mask (first generation NTP prodrugs),[ ^23 , ^24 , ^25 ] no d4TTP was detected in these studies using 6 or 7. A side reaction occurred during the studies using compounds 7 that led to the formation of thymine by the cleavage of the glycosidic bond as reported before.[ ^19 , ^22 ]
as §5
Chemical hydrolysis of prodrugs of γ-(AB,alkyl) d4TTP 6 as well as the γ-alkyl-NTPs 7,15:
Stock solutions (50mM in DMSO-d6) of compounds 6,7 were prepared. After dilution of 11 µL stock solution with 100 µL milliQ water and 189 µL DMSO-d6 to 1.9mM hydrolysis solutions the reaction was started by addition of 300 µL phosphate buffer saline (PBS, 50mM, pH 7.3). The solution was incubated at 37 C in a thermomixer. An initial aliquot (25 µL) was taken directly and analyzed by analytical HPLC at 265-266 nm. Further aliquots were taken for monitoring the kinetic hydrolysis. The exponential decay curves (pseudo-first order) based on absolute integral values were calculated with commercially available software (OriginPro 9.0G) and yielded the half-lives t1/2 of the prodrugs via one determination. […]
The calculation of t1/2 was performed analogously to that for the chemical hydrolysis studies.
as §6
(1 picture or pasted object on this page, not shown here)

[6] = wild-type CEM/0 cells, HIV-2, mean±SD, n=2-3
[7] = Human immunodeficiency virus 2, thymidine-kinase-deficient CEM/TK− cells, HIV-2, mean±SD, n=2-3

Row | EC50 (HIV-2(ROD) [1]; [6]) | half-life at 0.86 mM [2] | EC50 (HIV-2(ROD) [3]; [7]) | EC50 (HIV-1(IIIB)) | half-life at 0.92 mM [5] | stability in cell extracts (in words) ([2]; CEM cell extracts, incubation up to 30 h) | SMILES | antiviral activity in CEM/TK− cell cultures (in words) (HIV-2(ROD) [3]) | CC50 [4] | EC50 (HIV-2(ROD) [1]) | EC50 (HIV-2(ROD) [3]; Human immunodeficiency virus 2, CEM-TK(-)) | EC50 (HIV-2(ROD) [3]; thymidine-kinase-deficient CEM/TK− cells, HIV-2, mean±SD, n=2-3) | EC50 (HIV-2(ROD) [3]; thymidine-kinase-deficient CEM/TK− cells, HIV-2, mean±SD, n=2-3, listed as d4T 1)
1 | 620 ± 300 nM | 1.6 h | 2260 ± 1030 nM | 310 ± 10 nM | 52 h |  | CCCCCCCCC(=O)Oc1ccc(COP(=O)(OCc2ccc(OC(=O)CCCCCCCC)cc2)OP(=O)(O)OP(=O)(O)OCC2C=CC(n3cc(C)c(=O)[nH]c3=O)O2)cc1 (stereo not drawn) [5 a, reference compound] | active | 52000 ± 1000 nM |  |  |  | 
2 | 100 ± 30 nM | 3.3 h | 540 ± 410 nM | 120 ± 50 nM | 50 h |  | CCCCCCCCCCCCCCCCCC(=O)Oc1ccc(COP(=O)(OCc2ccc(OC(=O)CCCC)cc2)OP(=O)(O)OP(=O)(O)OCC2C=CC(n3cc(C)c(=O)[nH]c3=O)O2)cc1 (stereo not drawn) [5 b, reference compound] | active | 33000 ± 7000 nM |  |  |  | 
3 | 210 ± 60 nM | 5.2 h | 760 ± 110 nM | 170 nM | 269 h |  | CCCCCCCCCCCCCCCCCCOP(=O)(OCc1ccc(OC(=O)CCCCCC)cc1)OP(=O)(O)OP(=O)(O)OCC1C=CC(n2cc(C)c(=O)[nH]c2=O)O1 (stereo not drawn) [6 dz] |  | 27000 ± 4000 nM |  |  |  | 
4 |  |  |  |  |  | rapidly enzymatically dephosphorylated | Cc1cn([C@H]2C[C@H](O)[C@@H](COP(=O)(O)OP(=O)(O)OP(=O)(O)O)O2)c(=O)[nH]c1=O [TTP, reference compound] |  |  |  |  |  | 
5 | 160 ± 110 nM | 3.6 h | 920 ± 120 nM | 180 ± 10 nM | 212 h |  | CCCCCCCCCCCCCCCOP(=O)(OCc1ccc(OC(=O)CCCCCC)cc1)OP(=O)(O)OP(=O)(O)OCC1C=CC(n2cc(C)c(=O)[nH]c2=O)O1 (stereo not drawn) [6 dy] |  | 18000 ± 4000 nM |  |  |  | 
6 | 500 ± 140 nM | 0.4 h | 390 ± 300 nM | 220 ± 50 nM | 196 h |  | CCCCCCCCCCCCCCCCCCOP(=O)(OCc1ccc(OC(C)=O)cc1)OP(=O)(O)OP(=O)(O)OCC1C=CC(n2cc(C)c(=O)[nH]c2=O)O1 (stereo not drawn) [6 az] |  | 17000 ± 5000 nM |  |  |  | 
7 | 230 ± 180 nM | 3.4 h | 390 ± 300 nM | 250 nM | 197 h |  | CCCCCCCCCCCCCCCOP(=O)(OCc1ccc(OC(=O)CCCC)cc1)OP(=O)(O)OP(=O)(O)OCC1C=CC(n2cc(C)c(=O)[nH]c2=O)O1 (stereo not drawn) [6 cy] |  | 21000 ± 7000 nM |  |  |  | 
8 | 860 ± 40 nM | 2.5 h | 3900 ± 3400 nM | 620 ± 300 nM | 249 h |  | CCCCCCCCCCCCCCCOP(=O)(OCc1ccc(OC(=O)CCCCCCCCCCCCCCC)cc1)OP(=O)(O)OP(=O)(O)OCC1C=CC(n2cc(C)c(=O)[nH]c2=O)O1 (stereo not drawn) [6 ey] |  | 48000 ± 31000 nM |  |  |  | 
9 | 670 ± 880 nM | 0.7 h | 9740 ± 3440 nM | 500 ± 210 nM | 94 h |  | CCCCOP(=O)(OCc1ccc(OC(=O)CCCC)cc1)OP(=O)(O)OP(=O)(O)OCC1C=CC(n2cc(C)c(=O)[nH]c2=O)O1 (stereo not drawn) [6 cw] | marked loss of activity | 64000 ± 11000 nM |  |  |  | 

Row | SMILES | EC50 (HIV-2(ROD) [1]; [6]) | half-life at 0.86 mM [2] | EC50 (HIV-2(ROD) [3]; [7]) | EC50 (HIV-1(IIIB)) | half-life at 0.92 mM [5] | stability in cell extracts (in words) ([2]; CEM cell extracts, incubation up to 30 h) | antiviral activity in CEM/TK− cell cultures (in words) (HIV-2(ROD) [3]) | CC50 [4] | EC50 (HIV-2(ROD) [1]) | EC50 (HIV-2(ROD) [3]; Human immunodeficiency virus 2, CEM-TK(-)) | EC50 (HIV-2(ROD) [3]; thymidine-kinase-deficient CEM/TK− cells, HIV-2, mean±SD, n=2-3) | EC50 (HIV-2(ROD) [3]; thymidine-kinase-deficient CEM/TK− cells, HIV-2, mean±SD, n=2-3, listed as d4T 1)
10 | CCCCCCCCCCCCCCCCCCOP(=O)(OCc1ccc(OC(=O)CC)cc1)OP(=O)(O)OP(=O)(O)OCC1C=CC(n2cc(C)c(=O)[nH]c2=O)O1 (stereo not drawn) [6 bz] |  | 1.6 h |  | 190 ± 90 nM | 206 h |  |  | 11000 ± 4000 nM | 250 nM | 350 ± 250 nM |  | 
11 | Cc1cn([C@H]2C=C[C@@H](CO)O2)c(=O)[nH]c1=O [Compound 1, 3′‐deoxy‐2′,3′‐didehydrothymidine, reference compound] |  |  |  | 430 ± 250 nM |  |  |  | > 50000 nM | 220 ± 50 nM |  | > 50000 nM | 150000 nM
